Among the test systems are BT-549; EKVX; HCC 2998; HT-29; Hs-578T; M14; MOLT-4; NCI-H522; OVCAR-4; OVCAR-5; SF-268; SF-539; SK-OV-3; SR; T47D; U-251; UACC-257; UACC-62; SK-MEL-2; UO-31.
Common to all, as to experiment: DTP human tumour cell line panel, 48 h

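Cells were grown in 96-well plates and exposed to each compound for 48 hours at five concentrations; endpoints were interpolated linearly between bracketing concentrations, or set to the highest concentration if not reached. At the GI50, growth is halved.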 Active and inactive are the calls of the source. Rule as the data show it: active = GI50 up to about 1.1 µM and inactive = higher. Where a SMILES comes first, the peptide text is derived from it. The star is where a group is joined. Fmoc = O=C(OCC1c2ccccc2-c2ccccc21)*; Boc = CC(C)(C)OC(=O)* Bounds are passed on as bounds.

Turning to `Nc1ccc2nc3c(nc2c1)C(=O)c1ccccc1-3`, the GI50 in the test on BT-549, in the test on EKVX, with HCC 2998, in the test on HT-29, with Hs-578T and with M14 was > 100 µM (inactive) throughout. For the same molecule, the GI50 is 20.3 µM (inactive) in the test with MOLT-4; > 100 µM (inactive) in the test with NCI-H522; > 100 µM (inactive) with OVCAR-4; > 100 µM (inactive) in the test on OVCAR-5; > 100 µM (inactive) in the test with SF-268; > 100 µM (inactive) with SF-539. The GI50 in the test on SK-OV-3 was > 100 µM (inactive); with SR, > 10 µM (inactive); in the test with T47D, > 100 µM (inactive); in the test with U-251, > 100 µM (inactive); in the test on UACC-257, > 100 µM (inactive); in the test on UACC-62, > 100 µM (inactive).
`CN(C)CCOc1ccc(-c2c(Oc3ccccc3)c(=O)oc3ccccc23)cc1`: the GI50 was 13.6 µM (inactive) in the test with BT-549; 13.9 µM (inactive) in the test on EKVX; 6.62 µM (inactive) with HCC 2998; 12.5 µM (inactive) with HT-29; 17.8 µM (inactive) in the test on Hs-578T; 2.23 µM (inactive) in the test on M14. Further, the GI50 with MOLT-4 is 4.13 µM (inactive); in the test with NCI-H522 it was 11.3 µM (inactive); with OVCAR-4, 27.2 µM (inactive); in the test on OVCAR-5, 15 µM (inactive); with SF-268, 12.8 µM (inactive); with SF-539 it was 14.1 µM (inactive). In addition, the GI50 with SK-MEL-2 was 13.4 µM (inactive); in the test with SR, 2.83 µM (inactive); in the test on T47D, 12.7 µM (inactive); in the test with U-251 it was 4.86 µM (inactive); in the test on UACC-257 it was 6.67 µM (inactive); in the test with UACC-62 it was 13.3 µM (inactive). The GI50 in the test with UO-31 was 7.33 µM (inactive).
With `CC(C)(C)OC(=O)NCCCCC(NC(=O)OCC1c2ccccc2-c2ccccc21)C(=O)N1CCCC1C(=O)NCC(N)=O` (stereo not drawn) (Fmoc-Lys(Boc)-Pro-Gly-NH2; configuration not given here), the GI50 was 66.2 µM (inactive) in the test with BT-549; 76.2 µM (inactive) in the test with EKVX; 58.2 µM (inactive) in the test with HCC 2998; 31.3 µM (inactive) in the test with HT-29; > 100 µM (inactive) with Hs-578T; 35.1 µM (inactive) with M14. Further, the GI50 in the test with MOLT-4 was 29.5 µM (inactive); in the test on OVCAR-4, 23.2 µM (inactive); in the test on OVCAR-5, > 100 µM (inactive); with SF-268 it was 95.5 µM (inactive); with SF-539 it was 88.1 µM (inactive); in the test with SK-MEL-2, > 100 µM (inactive). The GI50 with SK-OV-3 was 2.17 µM (inactive); with SR it was 21.1 µM (inactive); with T47D it was 24.7 µM (inactive); with U-251, 18.5 µM (inactive); with UACC-257, > 100 µM (inactive); in the test on UACC-62, 46 µM (inactive). Further, the GI50 in the test with UO-31 is 15.3 µM (inactive).
With `c1ccc(-c2nc(-c3ccccc3SSc3ccccc3-c3nc(-c4ccccc4)nn3-c3ccccc3)n(-c3ccccc3)n2)cc1`, the GI50 with BT-549, in the test on EKVX, in the test on HCC 2998, in the test on Hs-578T, in the test on M14 and in the test with MOLT-4 was > 100 µM (inactive) in each case. Further, the GI50 in the test on OVCAR-5, in the test on SF-268, with SF-539, in the test on SK-OV-3, with SR and in the test on T47D was > 100 µM (inactive) throughout. Moreover, the GI50 in the test on U-251, in the test on UACC-62 and in the test on UO-31 was > 100 µM (inactive) throughout.
With `CN(CCC(=O)O)C1=Nc2ccc(Cl)cc2C(c2ccccc2)=[N+]([O-])C1`, the GI50 in the test with BT-549, in the test on EKVX, in the test with HT-29, with Hs-578T, with M14 and with MOLT-4 was > 100 µM (inactive) in each case. The GI50 in the test with NCI-H522 was > 100 µM (inactive); in the test on OVCAR-4, 72.1 µM (inactive); in the test with OVCAR-5, > 100 µM (inactive); in the test with SF-268 it was > 100 µM (inactive); in the test on SF-539, > 100 µM (inactive); with SK-MEL-2, > 100 µM (inactive). For the same molecule, the GI50 in the test on SK-OV-3, in the test on SR, in the test on T47D, in the test with U-251, with UACC-257 and in the test on UACC-62 was > 100 µM (inactive) each time. Also, the GI50 in the test on UO-31 was > 100 µM (inactive).
In the case of `O=[N+]([O-])/C(C(Cl)=C(Cl)Cl)=C(/Nc1ccccc1)Sc1ccccc1`, the GI50 with BT-549 was 25.5 µM (inactive); in the test on EKVX it was 19.6 µM (inactive); with HCC 2998 it was 18.5 µM (inactive); in the test with HT-29, 22.6 µM (inactive); in the test with Hs-578T, 40.4 µM (inactive); in the test on M14 it was 19.8 µM (inactive). Moreover, the GI50 in the test with MOLT-4 is 19.8 µM (inactive); in the test on NCI-H522, 16.2 µM (inactive); with OVCAR-4, 19.7 µM (inactive); in the test on SF-268, 14 µM (inactive); in the test on SF-539 it was 24.9 µM (inactive); in the test on SK-OV-3, 20.1 µM (inactive). Moreover, the GI50 in the test on SR is 20.7 µM (inactive); in the test with T47D, 19.7 µM (inactive); in the test on U-251, 14.6 µM (inactive); in the test with UACC-257, 16.6 µM (inactive); in the test with UACC-62 it was 19.9 µM (inactive); with UO-31, 14 µM (inactive).
With `C=C(C)c1nc(C#N)c(N)o1`, the GI50 with BT-549, with EKVX, in the test on HCC 2998, in the test with HT-29, in the test on Hs-578T and in the test with M14 was > 100 µM (inactive) each time. The GI50 in the test on MOLT-4, with OVCAR-4, in the test with OVCAR-5, with SF-268, in the test with SF-539 and in the test on SK-MEL-2 was > 100 µM (inactive) each time. The GI50 with SK-OV-3, in the test with SR, with T47D, with U-251, with UACC-257 and with UO-31 was > 100 µM (inactive) each time.
Regarding `O=C(O)c1c(-c2nccc3ccccc23)[nH]c(-c2ccccc2)c1S(=O)(=O)O`, the GI50 with BT-549 was > 100 µM (inactive); with EKVX, 21.8 µM (inactive); with HT-29, > 100 µM (inactive); in the test on Hs-578T it was > 100 µM (inactive); in the test with M14, > 100 µM (inactive); with MOLT-4 it was 47.6 µM (inactive). For the same molecule, the GI50 in the test on NCI-H522, in the test with OVCAR-4, in the test with OVCAR-5, with SF-268, in the test with SF-539 and in the test on SK-MEL-2 was > 100 µM (inactive) throughout. For the same molecule, the GI50 with SK-OV-3, with SR, in the test on T47D, in the test on U-251, in the test on UACC-257 and in the test on UACC-62 was > 100 µM (inactive) throughout. Also, the GI50 in the test with UO-31 was > 100 µM (inactive).
With `CCCCCCCCCC(=O)N[C@@H](c1ccco1)[C@@H](O)C(=O)O[C@H]1C[C@@]2(O)[C@@H](OC(=O)c3ccccc3)[C@@H]3[C@]4(OC(C)=O)CO[C@@H]4C[C@H](O)[C@@]3(C)C(=O)[C@H](OC(C)=O)C(=C1C)C2(C)C`, the GI50 was 0.0419 µM (active) in the test with BT-549; 10 µM (inactive) with EKVX; 0.0703 µM (active) in the test on HCC 2998; 0.00598 µM (active) in the test with HT-29; 0.00865 µM (active) in the test on Hs-578T; 0.0308 µM (active) with M14. The concentration for 50% growth inhibition (GI50) is 0.0124 µM (active) with MOLT-4; 0.0149 µM (active) in the test with NCI-H522; 1.34 µM (inactive) in the test on OVCAR-4; 0.0196 µM (active) in the test with OVCAR-5; 0.158 µM (active) with SF-268; 0.0228 µM (active) in the test on SF-539. In addition, the concentration for 50% growth inhibition (GI50) in the test with SK-OV-3 is 0.0269 µM (active); in the test with SR, 0.0101 µM (active); in the test with T47D it was 0.178 µM (active); in the test on U-251, < 0.0241 µM (active); in the test on UACC-257, 0.0374 µM (active); with UACC-62 it was 0.0467 µM (active). Besides, the GI50 in the test on UO-31 is 1.66 µM (inactive).
For `O=[N+]([O-])c1cc(Cl)cc2c1nc(NCCO)c1ccccc12`, the GI50 in the test on BT-549 was 15.4 µM (inactive); with EKVX it was 6.21 µM (inactive); in the test with HT-29, 0.063 µM (active); with Hs-578T, 28.9 µM (inactive); with M14 it was 8.45 µM (inactive); with MOLT-4 it was 3.78 µM (inactive). Also, the GI50 was 13.6 µM (inactive) in the test with NCI-H522; 13.5 µM (inactive) with OVCAR-4; 9.18 µM (inactive) in the test on OVCAR-5; 23.8 µM (inactive) with SF-268; 20.9 µM (inactive) with SF-539; 10.5 µM (inactive) in the test on SK-MEL-2. Moreover, the GI50 was 29.1 µM (inactive) in the test on SK-OV-3; 0.653 µM (active) with SR; 20.3 µM (inactive) with T47D; 6.64 µM (inactive) with U-251; 13.8 µM (inactive) in the test with UACC-257; 10.3 µM (inactive) in the test with UACC-62. Moreover, the GI50 in the test on UO-31 was 24.1 µM (inactive).

As a reminder, the GI50 is the concentration that inhibits growth by half.

Source of the values: ChEMBL document CHEMBL1201862, “PubChem BioAssay data set” (2004).
